Tests used:
Assay type in all cases: in vivo
[1] = test system: wild pansy (Viola tricolor L; VIOTR); assay: Postemergence herbicidal activity of mixtures, greenhouse, visual injury vs control
Description: (§1) Evaluation of Postemergence Herbicidal Activity of Mixtures in Cereal Crops
(§2) Seeds of the desired test plant species were planted in Sun Gro MetroMix® 306 planting mixture, which typically has a pH of 6.0 to 6.8 and an organic matter content of about 30 percent, in plastic pots with a surface area of 103.2 square centimeters (cm^2). When required to ensure good germination and healthy plants, a fungicide treatment and/or other chemical or physical treatment was applied. The plants were grown for 7-36 days (d) in a greenhouse with an approximate 14 hour (h) photoperiod which was maintained at about 18° C. during the day and 17° C. during the night. Nutrients and water were added on a regular basis and supplemental lighting was provided with overhead metal halide 1000-Watt lamps as necessary. The plants were employed for testing when they reached the second or third true leaf stage.
(§3) Treatments consisted of an insecticidal compound (as listed in Tables 1 through 18) and the cereal herbicide, 4-amino-3-chloro-6-(4-chloro-2-fluoro-3-methoxyphenyl)pyridine-2-carboxylic acid, alone and in combination. Weighed amounts of esters (methyl) or salts (triethylammonium, TEA) of 4-amino-3-chloro-6-(4-chloro-2-fluoro-3-methoxyphenyl)pyridine-2-carboxylic acid (Compound I) were placed in 25 milliliter (mL) glass vials and dissolved in a volume of 97:3 volume per volume (v/v) acetone/dimethyl sulfoxide (DMSO) to obtain 4.5 milligrams active ingredient per mL (mg ai/mL) concentrated solutions. […] The concentrated solutions of Compound I were diluted to 1.5 mg ai/mL with the addition of 2 volumes of an aqueous mixture containing acetone, water, isopropyl alcohol, DMSO, Agri-dex crop oil concentrate, and Triton® X-77 surfactant in a 64.7:26.0:6.7:2.0:0.7:0.01 v/v ratio. A dilution solution was prepared by mixing 1 volume of 97:3 v/v acetone/DMSO and 2 volumes of an aqueous mixture containing acetone, water, isopropyl alcohol, DMSO, Agri-dex crop oil concentrate, and Triton® X-77 surfactant in a 64.7:26.0:6.7:2.0:0.7:0.01 v/v ratio. Compound requirements are based upon a 12 mL application volume at a rate of 187 liters per hectare (L/ha). The concentrated solutions of the cereal insecticides were prepared following the same procedure. Weighed amounts of insecticide were placed in 25 milliliter (mL) glass vials and dissolved in a volume of 97:3 v/v acetone/DMSO to obtain concentrated insecticide solutions. The concentrated solutions of the safener were prepared following the same procedure. Weighed amounts of safener were placed in 25 mL glass vials and dissolved in a volume of 97:3 v/v acetone/DMSO to obtain concentrated safener solutions. The concentrated solutions were diluted to 0.75 mg/mL with an aqueous mixture of 1.5% v/v of Agri-dex crop oil concentrate.
(§4) Spray solutions of the cereal herbicide and the insecticidal compound mixtures were prepared by adding the concentrated solutions to the appropriate amount of dilution solution to form 12 mL spray solution with active ingredients in combinations. Spray solutions of the cereal herbicide, herbicide safener and the insecticidal compound mixtures were prepared by adding the concentrated solutions to the appropriate amount of dilution solution to form 12 mL spray solution with active ingredients in combinations. Formulated compounds were applied to the plant material with an overhead Mandel track sprayer equipped with 8002E nozzles calibrated to deliver 187 L/ha over an application area of 0.503 square meters (m^2) at a spray height of 18 inches […] above average plant canopy. Control plants were sprayed in the same manner with the solvent blank.
(§5) The treated plants and control plants were placed in a greenhouse as described above and watered by sub-irrigation to prevent wash-off of the test compounds. […]

[2] = test system: bird's-eye speedwell (Veronica persica L; VERPE); assay: as above;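 also: visual score 0 means no injury and 100 means complete kill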
Description: as §1, §2, §3, §4, §5

[3] = test system: scented mayweed (Matricaria chamomila L; MATCH); assay: as above
Description: as §1, §2, §3, §4, §5

[4] = test system: Russian thistle (Salsola iberica L; SASKR); assay: as above
Description: as §1, §2, §3, §4, §5

[5] = test system: kochia (Kochia scoparia L; KCHSC); assay: as above
Description: as §1, §2, §3, §4, §5

[6] = test system: wheat (Triticum aestivum L; TRZAS); assay: Postemergence crop injury and safening, greenhouse, visual injury vs control; settings: 35 g/ha alone; crop injury
Description: as §1, §2, §3, §4, §5

[7] = test system: barley (Hordeum vulgare L; HORVS); assay: as above; settings: 35 g/ha alone; crop injury
Description: as §1, §2, §3, §4, §5

`Cc1c(COC(=O)[C@@H]2[C@H](/C=C(\Cl)C(F)(F)F)C2(C)C)cccc1-c1ccccc1` (relative stereo) [Bifenthrin, (2-methyl[1,1′-biphenyl]-3-yl)methyl (1R,3R)-rel-3-[(1Z)-2-chloro-3,3,3-trifluoro-1-propenyl]-2,2-dimethylcyclopropanecarboxylate, reference compound] showed a pest or weed control at 1.6 g/ha ([1]; Viola tricolor, post-emergence, 1.6 g/ha alone, read-out: Ob (observed injury)) of 0%, a pest or weed control at 1.6 g/ha ([2]; Veronica persica, post-emergence, 1.6 g/ha alone, read-out: Ob (observed injury)) of 0% and a pest or weed control at 1.6 g/ha ([3]; Matricaria, post-emergence, 1.6 g/ha alone, read-out: Ob (observed injury)) of 0%. For the same compound, the pest or weed control at 1.6 g/ha ([4]; Salsola tragus, post-emergence, 1.6 g/ha alone, read-out: Ob (observed injury)) was 0%.
With `CC1(C)[C@H](/C=C(\Cl)C(F)(F)F)[C@@H]1C(=O)O[C@@H](C#N)c1cccc(Oc2ccccc2)c1` (relative stereo) [λ-Cyhalothrin, (R)-cyano(3-phenoxyphenyl)methyl (1S,3S)-rel-3-[(1Z)-2-chloro-3,3,3-trifluoro-1-propenyl]-2,2-dimethylcyclopropanecarboxylate] the pest or weed control at 1.25 g/ha ([1]; Viola tricolor, post-emergence, 1.25 g/ha alone, read-out: Ob (observed injury)) was 0%, the pest or weed control at 1.25 g/ha ([2]; Veronica persica, post-emergence, 1.25 g/ha alone, read-out: Ob (observed injury)) was 0% and the pest or weed control at 1.25 g/ha ([4]; Salsola tragus, post-emergence, 1.25 g/ha alone, read-out: Ob (observed injury)) was 0%.
Work on `CCOP(=S)(OCC)Oc1nc(Cl)c(Cl)cc1Cl` [Chlorpyrifos, O,O-diethyl O-(3,5,6-trichloro-2-pyridinyl) phosphorothioate, reference compound] yielded a pest or weed control at 60 g/ha ([1]; Viola tricolor, post-emergence, 60 g/ha alone, read-out: Ob (observed injury)) of 0%, a pest or weed control at 60 g/ha ([2]; Veronica persica, post-emergence, 60 g/ha alone, read-out: Ob (observed injury)) of 0% and a pest or weed control at 60 g/ha ([5]; Bassia scoparia, post-emergence, 60 g/ha alone, read-out: Ob (observed injury)) of 0%. It also gave a pest or weed control at 60 g/ha ([3]; Matricaria, post-emergence, 60 g/ha alone, read-out: Ob (observed injury)) of 0% and a pest or weed control at 60 g/ha ([4]; Salsola tragus, post-emergence, 60 g/ha alone, read-out: Ob (observed injury)) of 0%.
Compound `COc1c(Cl)ccc(-c2cc(N)c(Cl)c(C(=O)O)n2)c1F` [Compound I Acid, 4-Amino-3-chloro-6-(4-chloro-2-fluoro-3-methoxyphenyl)pyridine-2-carboxylic acid] has a pest or weed control at 35 g/ha ([1]; Viola tricolor, post-emergence, 35 g/ha alone, read-out: Ob (observed injury)) of 60%, a pest or weed control at 35 g/ha ([2]; Veronica persica, post-emergence, 35 g/ha alone, read-out: Ob (observed injury)) of 72% and a pest or weed control at 35 g/ha ([5]; Bassia scoparia, post-emergence, 35 g/ha alone, read-out: Ob (observed injury)) of 98%. The pest or weed control at 35 g/ha ([4]; Salsola tragus, post-emergence, 35 g/ha alone, read-out: Ob (observed injury)) was 89%, the “Ob (observed injury)” value [6] was 22% and the “Ob (observed injury)” value [7] was 15%.
With `CCN(CC)CC.COc1c(Cl)ccc(-c2cc(N)c(Cl)c(C(=O)O)n2)c1F` [Compound I TEA salt] the “Ob (observed injury)” value ([1]; 8.75 g/ha alone) was 23%, the “Ob (observed injury)” value ([1]; 17.5 g/ha alone) was 40% and the “Ob (observed injury)” value ([1]; 35 g/ha alone) was 47%. For the same compound, the “Ob (observed injury)” value ([2]; 8.75 g/ha alone) was 10%, the “Ob (observed injury)” value ([2]; 17.5 g/ha alone) was 40% and the “Ob (observed injury)” value ([2]; 35 g/ha alone) was 70%. The “Ob (observed injury)” value ([5]; 8.75 g/ha alone) was 40%, the “Ob (observed injury)” value ([5]; 17.5 g/ha alone) was 55% and the “Ob (observed injury)” value ([5]; 35 g/ha alone) was 65%. For the same compound, the “Ob (observed injury)” value ([3]; 8.75 g/ha alone) was 40%, the “Ob (observed injury)” value ([3]; 17.5 g/ha alone) was 67% and the “Ob (observed injury)” value ([3]; 35 g/ha alone) was 73%. The “Ob (observed injury)” value ([4]; 8.75 g/ha alone) was 80%, the “Ob (observed injury)” value ([4]; 17.5 g/ha alone) was 84% and the “Ob (observed injury)” value ([4]; 35 g/ha alone) was 86%.
With `CC1(C)C(C=C(Cl)Cl)C1C(=O)OC(C#N)c1ccc(F)c(Oc2ccccc2)c1` (stereo not shown) [Cyfluthrin, cyano(4-fluoro-3-phenoxyphenyl)methyl 3-(2,2-dichloroethenyl)-2,2-dimethylcyclopropanecarboxylate, reference compound] the pest or weed control at 3.75 g/ha ([1]; Viola tricolor, post-emergence, 3.75 g/ha alone, read-out: Ob (observed injury)) was 0%, the pest or weed control at 3.75 g/ha ([5]; Bassia scoparia, post-emergence, 3.75 g/ha alone, read-out: Ob (observed injury)) was 0% and the pest or weed control at 3.75 g/ha ([3]; Matricaria, post-emergence, 3.75 g/ha alone, read-out: Ob (observed injury)) was 0%. The pest or weed control at 3.75 g/ha ([4]; Salsola tragus, post-emergence, 3.75 g/ha alone, read-out: Ob (observed injury)) was 0%.
